Laboratory results reported in patent US20230416785A1, “NUCLEASE AND APPLICATION THEREOF” (CRISP-HR Therapeutics, Inc., priority 2020, published 2023).
“Also recorded” adds a separate entry of the source.

Legend:
AAVS1 [1] = experiment: RLucRT HDR assay in A549 cells; format: cell-based, human; conditions: G1
Beta-Catenin1 [2] = experiment: Beta-Catenin1:mCherry knock-in in HEK293 cells; format: cell-based, human
CHO-SHS-1.2 = experiment: CHO cell Cas9-HR8 stable knock-in, anti-Cas9 western blot; format: cell-based; conditions: CHO cells; CHO-SHS-1.2-G1; Puromycin 10 days, then 12 days without
Description: CHO-Freestyle Cells (Invitrogen) were grown to ˜70% confluency, after which were transfected using the Neon (Thermo) transfection system and 250 ng of Cas9-HR8, 250 ng of either CHO-SHS-1.2-G1, and 50 ng CHO-SHS-1.2-pCAG-Cas9-HR8-IRES-PuroR RT. Cells were allowed to recover for two days, then treated with […] Puromycin for 10 days, after which Puromycin selection was removed. Cells were grown for an additional 12 days, after which cells split and half were frozen, while the other half was treated with RIPA buffer (Santa-Cruz) to extract protein, with non-transfected control CHO cells protein also extracted via RIPA buffer. Lysate was normalized and 7.5 ug total protein was loaded onto a 4-12% Bis-Tris Acrylamide gel (Invitrogen), and transferred to nitrocellulose using BioRad blotting and transfer system (BioRad). Membrane was washed 3× with 1×PBST (BioRad), blocked for 10 minutes using EveryBlot blocking solution (BioRad), and incubated for 1 hr at RT with a 1:1000 dilution of mouse anti-Cas9 (SantaCruz). Membrane was washed 5× for 5 minutes each in PBST, then incubated for an hour with 1:1000 rabbit anti-mouse-HRP secondary antibody for 1 hr at RT. Membrane was then washed 5× for 5 minutes each in PBST, after which a 1× NC/DAB (ThermoFisher) solution was used to visualize bands. FIG. 22A illustrates an exemplary diagram showing CHO cell Cas9-HR8 stable knock-in protocol. […]

Cadherin1 = experiment: Cadherin1:mCherry HDR in H1299 cells; format: cell-based, human
Description: After three days, media was replaced with HBSS (to reduce background for imaging) imaged using an EVOS M5000 imaging system. Imaging was performed by randomly finding and focusing on at least ten different sections per well using a 10× magnification lens, after which both brightfield and RFP images were acquired. Imaged were quantified by hand, using control images as the basis for RFP/mCherry background fluorescence.

[3] = system: intergenic region on Chromosome 6 (Int-G2, Int-G3); experiment: PuroRT HDR quantification in K562 cells (puromycin survival); format: cell-based, human
Description: The target integration site is approximately ˜1 kb to the 3′ end of the human H2B gene on Chromosome 6, an intergenic region which has no predicted genes or long non-coding RNA.
Next, to assay HDR rates, K562 cells were again used instead of A549 cells, as the lack of a functional p53 gene should help to deconvolute HDR rates from cellular toxicity effects. […] After two days, DNA was extracted from ˜ 1/10 of surviving cells and used for analysis of Puro RT genomic integration. The next day, 0.5 mg/mL puromycin was added, and after three days cellular survival was quantified via resazurin assay as described previously.
After two days, 1/10 of cells were taken for DNA extraction, while the rest were treated with 0.5 μg/mL puromycin. Cells were grown for a further 3 days then viability quantified via Resazurin assay.

AAVS1 [4] = experiment: RLucRT luminescence HDR assay in H1299 cells; format: cell-based, human; conditions: for luminescence relative to Cas9: RLucRT (2.0 kb)
Description: FIG. 4B illustrates experimental procedures for RLucRT experiments. Diagram showing experimental procedure for the dsDNA RLucRT HDR assay in H1299 cells. […] After two days, cellular viability is quantified via Resazurin assay, then cells are washed with PBS then lysed. Lysate is then incubated with Coelenterazine, and luminescence immediately quantified via plate reader.
For these experiments, the well characterized safe harbor site AAVS1 was used combined with previously established and functional guide RNAs AAVS1 T1 and T2, which will be referred to as G1 and G2 respectively hereafter. […] As with the puromycin resistance cassette, PCR amplified dsDNA was used as opposed to plasmids to avoid confounding results when quantifying HDR rates, and to avoid extra integration of plasmid specific sequences in the genome.
(§1) Next the viability of transfected cells was quantified via resazurin after two days, then cells were washed with PBS, then lysed and luminescence quantified via plate reader (FIG. 4B). […] Next Luminescence was quantified via the Renilla-Glo Luciferase Assay System (Promega) using a 96 well plate reader with luminescence capabilities (Tecan). After data collection, raw luminescence was background subtracted from non-transfected control cells, corrected for cellular viability, and plotted in FIG. 4D.
(§2) After two days, cellular viability was quantified via Resazurin, then washed with PBS and lysed with 25 μL of cell lysis buffer, and luciferase activity was quantified via Renilla Luciferase Assay (Promega) and using a Tecan Infinite Mplex plate reader.

H1299 cells = experiment: Cellular viability of transfected H1299 cells (resazurin assay); format: cell-based, human; conditions: for cellular viability compared to RLucRT alone: H1299 cells, AAVS1 G1 or G2 plus RLucRT, two days
Text: as §1
Unless otherwise noted, adherent cells (A549 or H1299) were seeded in 96 well plates and grown in either 50/50 F-12/DMEM or RPMI-1640 respectively, supplemented with 5% FBS and grown to roughly 70% confluency. Cells were then transfected with either Cal-Phos as described in Chen 2012 or Lipofectamine 3000 (Thermofisher). Fresh media was exchanged the next day and cellular viability was quantified on day 2.
20 μL of 0.15 mg/mL Resazurin solution was added to cells either plated in 96 well plates for all cell lines, which were then incubated for ˜4 hours at 37° C. Cellular toxicity was quantified using a Tecan SpectraFlour Plus plate reader (Tecan) using a 535/595 filter set. Raw data was then normalized to the mean of the untransfected controls and plotted as described.
as §2

Beta-Catenin1 [5] = experiment: Beta-Catenin1:mCherry HDR in H1299 cells; format: cell-based, human
Description: After three days, media was replaced with HBSS (to reduce background for imaging) imaged using an EVOS M5000 imaging system. Imaging was performed by randomly finding and focusing on at least ten different sections per well using a 20× magnification lens, after which both brightfield and RFP images were acquired. Imaged were quantified by hand, using control images as the basis for RFP/mCherry background fluorescence.

[6] = comparison with Dna2 fusions, day 3

Cas9-HR 8: hExo1(1-352)-Cas9 fusion of FIG. 1A; E. coli codon optimized vectors SEQ ID NO: 68 and 69
HDR rates compared to Cas9 (normalized luminescence) (AAVS1 [1]): ~2.5 ×
HDR rates compared to Cas9 (normalized knock-in rates) (Beta-Catenin1 [2]; B-Cat-G3): ~2.5 ×
absolute mCherry+ cells relative to Cas9-NT or repair template alone (Beta-Catenin1 [2]; Beta-Catenin-G1): significant increases in mCherry+ cells
numbers of mCherry+ cells compared to repair template (Beta-Catenin1 [2]; Beta-Catenin-G1): significantly increased numbers of mCherry+ cells
stable knock-in of Cas9-HR8 repair template (over 8 kb), anti-Cas9 western blot (CHO-SHS-1.2): stably integrated Cas9-HR8
mCherry+ cells, whole well imaging (Cadherin1; H1299 cells, 12 well plate, Ecad-G1, 4 Days after transfection): significant amounts of mCherry+ cells; also recorded: significantly higher amounts of mCherry+ cells
fold change in mCherry+ cells relative to Cas9 (Cadherin1; H1299 cells, G1, day 3): ~2.3 fold
fold increase in mCherry+ cells relative to Cas9 (Cadherin1; H1299 cells, all guide polynucleotides, day 3): > 1.5 fold
mCherry+ cells compared to Cas9 (Cadherin1; H1299 cells, all three gRNAs (so in the source), day 3): significant increases in mCherry+ cells
positive cell count compared to Cadherin1:mCherry alone (Cadherin1; H1299 cells, average mCherry+ cells per image section, day 3): significant increases in positive cell count
normalized Cadherin1:mCherry HDR rate (fold change compared to Cas9) (Cadherin1; comparison with Dna2 fusions): significantly higher HDR rate
mCherry+ cell count compared to Cadherin1:mCherry RT alone (Cadherin1; [6]): significant increases in mCherry+ cell count
mCherry+ cells compared to Cas9 (Cadherin1; [6]): significant increases in mCherry+ cells
PCR of genomic integration of Puro RT at 5′ and 3′ ends [3]: successful integration of the repair template
nested junction PCR of RLucRT integration (5′ and 3′) (AAVS1 [4]; AAVS1-G1): Strong specific amplification
luminescence relative to Cas9 (AAVS1 [4]; AAVS1 G1): ~2.5 fold
luminescence relative to Cas9 (AAVS1 [4]; AAVS1 G2): ~2 fold
luminescence, AAVS1-G1 compared with AAVS1-G2 (AAVS1 [4]; background subtracted): significantly higher luminescence
increase in HDR rates compared to Cas9 (Cas9 normalized luminescence) (AAVS1 [4]; both G1 and G2): 2-3 ×
toxicity in H1299 cells compared to A549 (H1299 cells; H1299 cells (lack functional p53 gene), H2B-G4 guide): small reduction
cellular viability compared to RLucRT alone (H1299 cells): slightly reduced
cellular viability compared to RLucRT alone (H1299 cells; listed as Cas9-HR8): no gross changes in cellular viability
fold change in mCherry+ cells relative to Cas9 (Beta-Catenin1 [5]; G2, day 3): ~2.5 fold
fold change in mCherry+ cells relative to Cas9 (Beta-Catenin1 [5]; G3, day 3): ~2.5 fold
fold increase in mCherry+ cells relative to Cas9 (Beta-Catenin1 [5]; all guide polynucleotides (G1, G2, G3), day 3): > 2 fold
mCherry+ cells compared to Cas9 (Beta-Catenin1 [5]; all three gRNAs, day 3): significant increases in mCherry+ cells
positive cell count compared to Beta-Catenin1:mCherry alone (Beta-Catenin1 [5]; average mCherry+ cells per image section, day 3): significant increases in positive cell count
